One experiment has as its system Bacillus cereus IFO 3001. Kind of experiment: Minimum bactericidal concentration (MBC) against bacteria. Particulars: contact 30° C. 30 minutes, culture 37° C. 24 hours. Type of experiment: cell-based. Here is the method: (§1) A bacteria solution in the initial stage of logarithmic productive phase which had been adjusted with a nutrient broth according to an ordinary sterilized water dilution method such that the concentration of bacterial suspension reached 10^6 cell/ml was brought into contact with chemical solutions having concentrations which vary stepwise at a temperature of 30° C. for 30 minutes, and then transplanted to a nutrient broth where it was then allowed to stand at a temperature of 37° C. for 24 hours for culture. The nutrient broth was then examined to see if the proliferation of bacteria occurred. Thus, MBC was determined.
(§2) Five kinds of gram-negative bacteria and four kinds of gram-positive bacteria were used as sample bacteria.
(§3) BAMP-6 (Example 12), BAMD-6,8 (Example 13), BAMT-6 (Example 17) and benzalkonium chloride (Comparative Example 1) were determined for MBC value against 5 kinds of gram-negative bacteria and 4 kinds of gram-positive bacteria in the same manner as in Test Example 1.

The test system of experiment [1] is Bacillus subtilis IFO 3134. The experiment is described as above. Type of experiment: cell-based. Particulars: contact 30° C. 30 minutes, culture 37° C. 24 hours. Here is the method: as §1, §2, §3
The subject of experiment [2] is Escherichia coli K12 OUT 8401. The description is as above. Type of experiment: cell-based. The settings on record: contact 30° C. 30 minutes, culture 37° C. 24 hours. Here is the method: as §1, §2, §3
Experiment [3] relates to Escherichia coli K12 W 3110. The description is as above. It is filed as cell-based. The settings on record: contact 30° C. 30 minutes, culture 37° C. 24 hours. Here is the method: as §1, §2, §3
Experiment [4] relates to Klebsiella pneumoniae ATCC 13883. The description is as above. It is filed as cell-based. The settings on record: contact 30° C. 30 minutes, culture 37° C. 24 hours. Here is the method: as §1, §2, §3
The test system of the next experiment is Proteus rettgeri NIT 96. The description is as above. It is filed as cell-based. The settings on record: contact 30° C. 30 minutes, culture 37° C. 24 hours. Here is the method:
as §1, §2, §3

Experiment [5] has as its system Pseudomonas aeruginosa ATCC 27583. The description is as above. It is filed as cell-based. Particulars: contact 30° C. 30 minutes, culture 37° C. 24 hours. Here is the method:
as §1, §2, §3

The test system of experiment [6] is Staphylococcus aureus IFO 12732. Described as above. It is filed as cell-based. The settings on record: contact 30° C. 30 minutes, culture 37° C. 24 hours. Here is the method:
as §1, §2, §3

The subject of experiment [7] is Bacillus substilis ATCC 6633. Described as above. Type of experiment: cell-based, Bacillus subtilis. The settings on record: contact 30° C. 30 minutes, culture 37° C. 24 hours. Here is the method: as §1, §2, §3
Experiment [8] deals with Escherichia coli K12 W 3110. Kind of experiment: Minimum development inhibiting concentration (MIC) against bacteria, broth dilution method. It is filed as cell-based. Particulars: 37° C. 24 hours. Here is the method:
A bacteria solution in stationary state which had been adjusted with a nutrient broth according to an ordinary broth dilution method such that the concentration of bacterial suspension reached 10^6 cell/ml was added to chemical solutions having concentrations which vary stepwise where it was then allowed to stand at a temperature of 37° C. for 24 hours for culture. The bacteria solution was then examined to see if the proliferation of bacteria occurred. Thus, MIC was determined.
Escherichia coli K12 W 3110 was used as a sample bacterium. Compounds obtained in Examples 1 to 9 and benzalkonium chloride prepared in Comparative Example 1 were used as test samples.
The compounds obtained in Examples 10 to 19 and benzalkonium chloride were determined for MIC value against Escherichia coli K12 W 3110 in the same manner as in Test Example 3.
In general terms: In broth dilution the organism is exposed to a series of concentrations in liquid medium.

Experiment [9] has as its system Escherichia coli K12 W 3110. Kind of experiment: MIC by agar plate dilution method. Particulars: E. coli, 37° C. 24 hours. It is filed as cell-based. Here is the method: (§4) MIC value was determined by an agar plate dilution method according to the Law of Japanese Society of Chemotherapy. In some detail, a bacteria solution in stationary state which had been adjusted with a nutrient broth such that the concentration of bacterial suspension reached 10^6 cell/ml was added to agar culture media containing chemical solutions having concentrations which vary in two stages where it was then allowed to stand at a temperature of 37° C. for 24 hours for culture. The bacteria solution was then examined to see if the proliferation of bacteria occurred. Thus, MIC was determined.
(§5) The following three kinds of bacteria were used as sample bacteria:
Escherichia coliK12 W 3110 (E. coli);

Experiment [10] concerns Pseudomonas aeruginosa ATCC27583. Kind of experiment: MIC by agar plate dilution method. It is filed as cell-based. The settings on record: P. aeruginosa, 37° C. 24 hours. Here is the method: as §4, §5
Pseudomonas aeruginosa ATCC27583 (P. auruginosa); and […]

Experiment [11] concerns Aspergillus niger IFO 6431. The experiment can be described thus: Minimum development inhibiting concentration (MIC) against fungi. Type of experiment: cell-based. The settings on record: A. niger; spore solution, 27° C. 1 week. Here is the method:
(§6) A sample fungus which had been pre-cultured was diluted with a wetting agent-containing sterilized water according to an ordinary broth dilution method to prepare a spore solution. 1 ml of the spore solution was then mixed with 1 ml of each of chemical solutions having concentrations which vary stepwise. The mixture was then cultured at a temperature of 27° C. in an incubator for 1 week. The culture was then examined for turbidity to see if the proliferation of fungus occurred. The minimum concentration at which no turbidity occurs was defined to be MIC.
(§7) Aspergillus niger IFO 6431 (A. niger) and Candida albicans ATCC10231 (C. albicans) were used as sample microorganisms.

For experiment [12], the system named is Candida albicans ATCC10231. The description is as above. Type of experiment: cell-based. Particulars: C. albicans; spore solution, 27° C. 1 week. Here is the method: as §6, §7
In another experiment the test system is E. coli. The experiment can be described thus: Anti-septic power test (USP XX). Type of experiment: cell-based, Escherichia coli. Particulars: test sample 0.002 wt %. Here is the method: (§8) Solutions prepared according to the formulation set forth in Tables 10 and 11 below were subjected to anti-septic power test according to the method defined in Pharmacopoeia of the United States XX, 873 (1980). The solutions thus tested were then observed for anti-septic power after 1 hour, 4 hours, 24 hours, 7 days, 14 days, 21 days and 28 days. As test microorganisms, E. coli, P. auru. and S. Aureus were used as bacteria and A. niger and C. albicans were used as fungi. 4BAMP-6C and benzalkonium chloride were used as test samples.

The next experiment relates to P. aeruginosa. Kind of experiment: Anti-septic power test (USP XX). The settings on record: test sample 0.002 wt %. It is filed as cell-based, Pseudomonas aeruginosa. Here is the method:
as §8

The test system of a further experiment is S. aureus. Kind of experiment: Anti-septic power test (USP XX). Type of experiment: cell-based, Staphylococcus aureus. Particulars: test sample 0.002 wt %. Here is the method: as §8
The next experiment concerns A. niger. Kind of experiment: Anti-septic power test (USP XX). Type of experiment: cell-based, Aspergillus niger. The settings on record: test sample 0.002 wt %. Here is the method: as §8
The test system of the next experiment is C. albicans. Kind of experiment: Anti-septic power test (USP XX). Type of experiment: cell-based, Candida albicans. Particulars: test sample 0.002 wt %. Here is the method: as §8
Setting [13] is: Formulation 1 (chondroitin sodium sulfate 1 wt %).

For the substance “1,4-bis(N,N-dihexyl-N-methylammoniomethyl)phenylene dichloride [Example 4BAMP-6C]”, the MBC against Bacillus cereus IFO 3001 is 4 ppm; in experiment [1], under 2 ppm; in [2] it was 8 ppm; in experiment [3], 16 ppm; in [4] it was under 2 ppm; in the experiment on Proteus rettgeri NIT 96, under 2 ppm. The MBC in experiment [5] is reported as 16 ppm; in experiment [6], under 2 ppm; in experiment [7], under 2 ppm. Moreover, in experiment [8], the “MIC Escherichia coli K12 W 3110” value was 2 ppm. Also, the MIC was 8 ppm in experiment [9], under 2 ppm in [10], 16 ppm in experiment [11] and 4 ppm in experiment [12]. Further, the “time at which the desired anti-septic effect was confirmed” value (from here on “time”) with E. coli (setting [13]), in the experiment on E. coli (Formulation 2 (taurin 1 wt %)), in the experiment on P. aeruginosa (setting [13]), in the experiment with P. aeruginosa (Formulation 2 (taurin 1 wt %)), with S. aureus (setting [13]) and in the experiment with S. aureus (Formulation 2 (taurin 1 wt %)) was 1 h in each case. For the same substance, the “time” value in the experiment on A. niger (setting [13]) was determined as 7 days; in the experiment on A. niger (Formulation 2 (taurin 1 wt %)) it was 14 days; in the experiment with C. albicans (setting [13]), 7 days; in the experiment with C. albicans (Formulation 2 (taurin 1 wt %)) it was 7 days.

For “benzalkonium chloride [reference compound]”, the MBC stood at 4 ppm with Bacillus cereus IFO 3001; 4 ppm in [1]; 8 ppm in experiment [2]; 16 ppm in experiment [3]; 8 ppm in [4]; 16 ppm in the experiment on Proteus rettgeri NIT 96. Further, the figures for the MBC in [5], in [6] and in experiment [7] were 32 ppm, under 2 ppm and 4 ppm, respectively. For the same substance, the “MIC Escherichia coli K12 W 3110” value in [8] was found to be 8 ppm. Further, the MIC is listed as 32 ppm in experiment [9], 8 ppm in experiment [10], 32 ppm in experiment [11] and 16 ppm in experiment [12]. Also, the “time” value worked out at 24 hrs. hr in the experiment with E. coli (setting [13]); 24 hrs. hr in the experiment on E. coli (Formulation 2 (taurin 1 wt %)); 24 hrs. hr in the experiment on P. aeruginosa (setting [13]); 24 hrs. hr in the experiment on P. aeruginosa (Formulation 2 (taurin 1 wt %)); 4 hrs. hr with S. aureus (setting [13]); 4 hrs. hr in the experiment on S. aureus (Formulation 2 (taurin 1 wt %)). Moreover, the “time” value in the experiment on A. niger (setting [13]) is 28 days; with A. niger (Formulation 2 (taurin 1 wt %)) it was 28 days; with C. albicans (setting [13]), 21 days; in the experiment on C. albicans (Formulation 2 (taurin 1 wt %)), 21 days.

Source of the values: patent publication US6664224B2, “Quaternary ammonium salt and process for the preparation thereof” (priority 2000, dated 2003).
